Measurements taken from patent US20140303092A1 (CHIMERIX, INC., priority 2011, published 2014).

Assay: Study HDP-CDV-201: safety and tolerability (adverse events, laboratory abnormalities, discontinuations)
Assay type: in vivo, human (adult allogeneic HSCT recipients)
Conditions: for ALT, subject 4090 / AST, subject 4090 / Alk Phos, subject 4090 / Bilirubin, subject 4090: 100 BIW
Experimental: Clinical Studies of HDP-CDV were performed and described in detail in the following Examples. For example, HDP-CDV-201 is a placebo-controlled, dose-escalating trial in HSCT CMV (R+) recipients, evaluating the ability of HDP-CDV to prevent or control CMV infection was carried out. Five cohorts were established in which participants or subjects received either placebo or the HDP-CDV orally, in doses ranging from 40 mg weekly (QW) to 200 mg twice weekly (BIW). Subjects who were post-HSCT were enrolled at the time of engraftment and randomized to HDP-CDV or placebo (3 to 1 ratio) and received blinded therapy until approximately 100 day post-transplantation. HDP-CDV doses were 40 mg QW, 100 mg QW, 200 mg QW, 200 mg BIW and 100 mg BIW. Escalation to the next dose was decided by the data monitoring committee after review of the safety data from the previous Cohort. Subjects who developed CMV disease or CMV infection requiring pre-emptive therapy with local standard of care were discontinued from blinded therapy and followed for 4 weeks. Subjects who completed treatment with blinded therapy were followed for 8 weeks post-therapy.
Data from Study HDP-CDV-201 also provided characterization of the safety and tolerability profile of HDP-CDV when administered for the prevention or control of CMV infection in high risk (R^+) post-HSCT adult subjects.
The Safety population (SAFETY) included all randomized subjects who took at least one dose of study treatment. This population was used to summarize safety outcomes based on the treatment actually received, in cases where a subject was treated contrary to the randomization schedule.
The safety and tolerability profile of HDP-CDV, including subject demographics and Baseline characteristics; the AE profile; and laboratory abnormalities of interest were analyzed in the cohorts followed in this investigation.
Subjects completing the treatment period received a full course of study medication; those completing the entire study attended visits through 8 weeks of follow up. Subjects who discontinued treatment may have done so for protocol specified reasons (e.g. development of clinically significant CMV infection requiring preemptive treatment with excluded anti-CMV medications) or for other reasons (e.g., withdrawal, adverse events, loss to follow-up). The disposition of subjects in Study HDP-CDV-201 during the double-blind, placebo-controlled treatment period (through Week 11) is listed by dosing Cohort in TABLE 23.
Adverse events were examined by severity to ensure that all safety signals were identified in this study population. Because of the frequency of events in HSCT recipients, particular attention was given to evaluation of Grade 3 […], 4 (severe), and 5 (fatal) adverse events.
Only those preferred terms for which at least one Grade 3 or higher event was experienced in any treatment group are listed. Cytomegalovirus-related AEs are excluded from this analysis.
HDP-CDV is a lipid conjugate of CDV. Because CDV is known to have adverse effects on renal function and bone marrow, decreased GFR and persistent neutropenia were identified as AEs of special interest. Key renal and hematological (TABLE 30) laboratory parameters were measured and listed below by Study HDP-CDV-201 treatment groups. TABLE 30 includes abnormal levels of serum creatinine, neutrophils, platelets, WBCs, and hemoglobin and includes data at Screening and during the treatment period.
A common metric for unit based dosing of medications is by weight (mg/kg). When the distribution of weights was examined for all subjects participating in the study, the median was 78 kg and the lower 25th percentile weight was approximately 65 kg, which translates to a cut-off of ˜3 mg/kg for a 200 mg total weekly dose. Based upon this approach, a cut-off of 3 mg/kg was used to assess the frequency of diarrhea and associated GI AEs reported for the subjects in Cohorts 3 or 4a (TABLE 40).

With CCCCCCCCCCCCCCCCOCCCOP(=O)(O)COC(CO)Cn1ccc(N)nc1=O (stereo not drawn) [HDP-CDV] the “TEAE LFT Abnormal, Grade 4” value (200 mg QW) was 0, the “TEAE LFT Abnormal, Grade 5” value (200 mg QW) was 0 and the “TEAE Leukocytosis, Frequency” value (200 mg QW) was 2 (5.1%). The “TEAE Leukocytosis, Grade 2” value (200 mg QW) was 0, the “TEAE Leukocytosis, Grade 3” value (200 mg QW) was 0 and the “TEAE Leukocytosis, Grade 4” value (200 mg QW) was 0. For the same compound, the “TEAE Leukocytosis, Grade 5” value (200 mg QW) was 0, the “TEAE Nausea, Frequency” value (200 mg QW) was 11 (28.2%) and the “TEAE Nausea, Grade 2” value (200 mg QW) was 4 (10.3%). The “TEAE Nausea, Grade 3” value (200 mg QW) was 1 (2.6%), the “TEAE Nausea, Grade 4” value (200 mg QW) was 0 and the “TEAE Nausea, Grade 5” value (200 mg QW) was 0. The “TEAE Neutropenia, Frequency” value (200 mg QW) was 4 (10.3%), the “TEAE Neutropenia, Grade 2” value (200 mg QW) was 1 (2.6%) and the “TEAE Neutropenia, Grade 3” value (200 mg QW) was 3 (7.7%). The “TEAE Neutropenia, Grade 4” value (200 mg QW) was 0, the “TEAE Neutropenia, Grade 5” value (200 mg QW) was 0 and the “TEAE Pneumonia, Frequency” value (200 mg QW) was 0. The “TEAE Pneumonia, Grade 2” value (200 mg QW) was 0, the “TEAE Pneumonia, Grade 3” value (200 mg QW) was 0 and the “TEAE Pneumonia, Grade 4” value (200 mg QW) was 0. The “TEAE Pneumonia, Grade 5” value (200 mg QW) was 0, the “TEAE Pyrexia, Frequency” value (200 mg QW) was 7 (17.9%) and the “TEAE Pyrexia, Grade 2” value (200 mg QW) was 2 (5.1%). For the same compound, the “TEAE Pyrexia, Grade 3” value (200 mg QW) was 2 (5.1%), the “TEAE Pyrexia, Grade 4” value (200 mg QW) was 0 and the “TEAE Pyrexia, Grade 5” value (200 mg QW) was 0. For the same compound, the “TEAE Renal Failure, Frequency” value (200 mg QW) was 0, the “TEAE Renal Failure, Grade 2” value (200 mg QW) was 0 and the “TEAE Renal Failure, Grade 3” value (200 mg QW) was 0. For the same compound, the “TEAE Renal Failure, Grade 4” value (200 mg QW) was 0, the “TEAE Renal Failure, Grade 5” value (200 mg QW) was 0 and the “TEAE Staphylococcal Bacteremia, Frequency” value (200 mg QW) was 1 (2.6%). For the same compound, the “TEAE Staphylococcal Bacteremia, Grade 2” value (200 mg QW) was 0, the “TEAE Staphylococcal Bacteremia, Grade 3” value (200 mg QW) was 1 (2.6%) and the “TEAE Staphylococcal Bacteremia, Grade 4” value (200 mg QW) was 0. The “TEAE Staphylococcal Bacteremia, Grade 5” value (200 mg QW) was 0, the “TEAE Thrombocytopenia, Frequency” value (200 mg QW) was 0 and the “TEAE Thrombocytopenia, Grade 2” value (200 mg QW) was 0. The “TEAE Thrombocytopenia, Grade 3” value (200 mg QW) was 0, the “TEAE Thrombocytopenia, Grade 4” value (200 mg QW) was 0 and the “TEAE Thrombocytopenia, Grade 5” value (200 mg QW) was 0. For the same compound, the “TEAE Vomiting, Frequency” value (200 mg QW) was 6 (15.4%), the “TEAE Vomiting, Grade 2” value (200 mg QW) was 1 (2.6%) and the “TEAE Vomiting, Grade 3” value (200 mg QW) was 1 (2.6%). The “TEAE Vomiting, Grade 4” value (200 mg QW) was 0, the “TEAE Vomiting, Grade 5” value (200 mg QW) was 0 and the “subjects requiring treatment with steroids during the study” value (200 mg QW) was 59%. For the same compound, the “proportion of subjects with Grade 3 or higher ALT” value (200 mg QW (6 of 39)) was 15.8%, the “subjects who discontinued study medications” value (200 mg QW, fasted state) was 54% and the “Subjects Reporting Diarrhea as an AE” value (200 mg QW, n = 39) was 13 (33.3%). The “Discontinuation: Death” value (200 mg QW, active treatment period) was 3 (7.7%) Subject n (%), the “Discontinuation: Adverse event” value (200 mg QW, active treatment period through Week 11) was 7 (17.9%) Subject n (%) and the “subjects reporting SAEs involving the gastrointestinal tract” value (400 mg per week, given as 200 mg BIW) was 63%. The “ALT, subject 4090” value (Treatment Wk 8) was 445 U/L, the “AST, subject 4090” value (Treatment Wk 8) was 195 U/L and the “Alk Phos, subject 4090” value (Treatment Wk 8) was “Normal”. The “Bilirubin, subject 4090” value (Treatment Wk 8) was 44 µmol/L, the “ALT, subject 4090” value (Treatment Wk 10) was 792 U/L and the “AST, subject 4090” value (Treatment Wk 10) was 312 U/L. The “Alk Phos, subject 4090” value (Treatment Wk 10) was “Normal”, the “Bilirubin, subject 4090” value (Treatment Wk 10) was “Normal” and the “ALT, subject 4008” value (200 BIW, Posttreatment Wk 1) was 137 U/L. The “AST, subject 4008” value (200 BIW, Posttreatment Wk 1) was “Normal”, the “Bilirubin, subject 4008” value (200 BIW, Posttreatment Wk 1) was 48 µmol/L and the “Alk Phos, subject 4008” value (200 BIW, Posttreatment Wk 1, Previously elevated) was 117 U/L. The “ALT, subject 3001” value (200 QW, Post Treatment Wk 1) was 375 U/L, the “AST, subject 3001” value (200 QW, Post Treatment Wk 1) was 164 U/L and the “Bilirubin, subject 3001” value (200 QW, Post Treatment Wk 1) was 89 µmol/L. For the same compound, the “Alk Phos, subject 3001” value (200 QW, Post Treatment Wk 1, elevated) was 337 U/L, the “ALT, subject 3044” value (200 QW, Post Treatment Wk 4) was 227 U/L and the “AST, subject 3044” value (200 QW, Post Treatment Wk 4) was “Normal”. For the same compound, the “Bilirubin, subject 3044” value (200 QW, Post Treatment Wk 4) was 50 µmol/L, the “Alk Phos, subject 3044” value (200 QW, Post Treatment Wk 4, Previously elevated) was 174 U/L and the “Grade of hepatobiliary AE symptomatic gallstones, subject 1016” value (Cohort 1) was 3. The “Grade of hepatobiliary AE worsening hyperbilirubinemia, subject 1003” value (Cohort 1) was 4, the “Outcome of hepatobiliary AE symptomatic gallstones, subject 1016” value (Cohort 1) was “recovered/resolved” and the “Outcome of hepatobiliary AE worsening hyperbilirubinemia, subject 1003” value (Cohort 1) was “not recovered/not”. The “Relationship of hepatobiliary AE symptomatic gallstones, subject 1016” value (Cohort 1) was “not related”, the “Relationship of hepatobiliary AE worsening hyperbilirubinemia, subject 1003” value (Cohort 1) was “not related” and the “subjects discontinued due to neutropenia” value (Cohort 1) was 0 subject(s). The “ALT (Screening) >3 × ULN-5 × ULN, subjects” value (Cohort 1, 40 mg QW) was 0, the “ALT (Screening) >5 × ULN-10 × ULN, subjects” value (Cohort 1, 40 mg QW) was 0 and the “ALT (Screening) >10 × ULN-20 × ULN, subjects” value (Cohort 1, 40 mg QW) was 0. The “ALT (Screening) >20 × ULN, subjects” value (Cohort 1, 40 mg QW) was 0, the “ALT (any time during therapy) >3 × ULN-5 × ULN, subjects” value (Cohort 1, 40 mg QW) was 2 (8.7%) and the “ALT (any time during therapy) >5 × ULN-10 × ULN, subjects” value (Cohort 1, 40 mg QW) was 1 (4.3%). The “ALT (any time during therapy) >10 × ULN-20 × ULN, subjects” value (Cohort 1, 40 mg QW) was 0, the “ALT (any time during therapy) >20 × ULN, subjects” value (Cohort 1, 40 mg QW) was 0 and the “AST (Screening) >3 × ULN-5 × ULN, subjects” value (Cohort 1, 40 mg QW) was 0. The “AST (Screening) >5 × ULN-10 × ULN, subjects” value (Cohort 1, 40 mg QW) was 0, the “AST (Screening) >10 × ULN-20 × ULN, subjects” value (Cohort 1, 40 mg QW) was 0 and the “AST (Screening) >20 × ULN, subjects” value (Cohort 1, 40 mg QW) was 0. The “AST (any time during therapy) >3 × ULN-5 × ULN, subjects” value (Cohort 1, 40 mg QW) was 1 (4.3%), the “AST (any time during therapy) >5 × ULN-10 × ULN, subjects” value (Cohort 1, 40 mg QW) was 0 and the “AST (any time during therapy) >10 × ULN-20 × ULN, subjects” value (Cohort 1, 40 mg QW) was 0. The “AST (any time during therapy) >20 × ULN, subjects” value (Cohort 1, 40 mg QW) was 0, the “Alkaline Phosphatase (Screening) >2.5-5.0 × ULN, subjects” value (Cohort 1, 40 mg QW) was 0 and the “Alkaline Phosphatase (Screening) >5.0-20.0 × ULN, subjects” value (Cohort 1, 40 mg QW) was 0. For the same compound, the “Alkaline Phosphatase (Screening) >20.0 × ULN, subjects” value (Cohort 1, 40 mg QW) was 0, the “Alkaline Phosphatase (Screening) >ULN-[…] ULN, subjects” value (Cohort 1, 40 mg QW) was 6 (24.0%) and the “Alkaline Phosphatase (any time during therapy) >2.5-5.0 × ULN, subjects” value (Cohort 1, 40 mg QW) was 0. The “Alkaline Phosphatase (any time during therapy) >5.0-20.0 × ULN, subjects” value (Cohort 1, 40 mg QW) was 0, the “Alkaline Phosphatase (any time during therapy) >20.0 × ULN, subjects” value (Cohort 1, 40 mg QW) was 0 and the “Alkaline Phosphatase (any time during therapy) >ULN-[…] ULN, subjects” value (Cohort 1, 40 mg QW) was 6 (26.1%). For the same compound, the “GI AE Leading to Study Drug Discontinuation: Abdominal pain, subjects” value (Cohort 1, 40 mg QW) was 0, the “GI AE Leading to Study Drug Discontinuation: Diarrhoea, subjects” value (Cohort 1, 40 mg QW) was 0 and the “GI AE Leading to Study Drug Discontinuation: Dyspepsia, subjects” value (Cohort 1, 40 mg QW) was 0. For the same compound, the “GI AE Leading to Study Drug Discontinuation: Nausea, subjects” value (Cohort 1, 40 mg QW) was 0, the “GI AE Leading to Study Drug Discontinuation: Vomiting, subjects” value (Cohort 1, 40 mg QW) was 0 and the “GI AEs Leading to Study Drug Discontinuation: Total subjects discontinued” value (Cohort 1, 40 mg QW) was 0.
